Measurements from PubChem BioAssay AID330 (DTP/NCI, 2004).
Inconclusive results and toxic doses are left out. The calls were made as follows: active = survival T/C of 150% or more; inactive = T/C below 125% in these data.

Tested on: P388 leukemia ip, CD2F1 mice, survival T/C
Assay: NCI In Vivo Anticancer Drug Screen. Data for tumor model P388 Leukemia (intraperitoneal) in CD2F1 (CDF1) mice
Details: endpoint: median survival time, higher = longer survival
Summary of the method: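 Mice carrying the transplanted tumor received test compound or vehicle. Survival was recorded in each group, and the value is the treated-group measurement divided by that of the vehicle-treated control group.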

[1] = dose: 100.0 mg/kg/injection, schedule: Q01DX001 (ip), vehicle: saline with Tween-80
[2] = dose: 50.0 mg/kg/injection, schedule: Q01DX005 (ip), vehicle: saline with Tween-80
[3] = dose: 100.0 mg/kg/injection, schedule: Q01DX005 (ip), vehicle: saline with Tween-80
[4] = dose: 200.0 mg/kg/injection, schedule: Q01DX005 (ip), vehicle: saline with Tween-80
[5] = dose: 6.25 mg/kg/injection, schedule: Q01DX009 (ip), vehicle: saline
[6] = dose: 50.0 mg/kg/injection, schedule: Q01DX009 (ip), vehicle: saline
[7] = dose: 50.0 mg/kg/injection, schedule: Q01DX009 (ip), vehicle: suspension in saline
[8] = dose: 100.0 mg/kg/injection, schedule: Q01DX009 (ip), vehicle: saline
[9] = dose: 200.0 mg/kg/injection, schedule: Q01DX009 (ip), vehicle: saline
[10] = dose: 200.0 mg/kg/injection, schedule: Q01DX009 (ip), vehicle: suspension in saline
[11] = dose: 25.0 mg/kg/injection, schedule: Q04DX003 (ip), vehicle: saline with Tween-80
[12] = dose: 50.0 mg/kg/injection, schedule: Q04DX003 (ip), vehicle: saline with Tween-80
[13] = dose: 100.0 mg/kg/injection, schedule: Q04DX003 (ip), vehicle: saline with Tween-80
[14] = dose: 12.5 mg/kg/injection, schedule: Q01DX009 (ip), vehicle: saline
[15] = dose: 100.0 mg/kg/injection, schedule: Q01DX009 (ip), vehicle: saline with Tween-80
[16] = dose: 200.0 mg/kg/injection, schedule: Q01DX009 (ip), vehicle: saline with Tween-80
[17] = dose: 50.0 mg/kg/injection, schedule: Q01DX009 (ip), vehicle: Klucel (hydroxypropylcellulose) (HPC)
[18] = dose: 100.0 mg/kg/injection, schedule: Q01DX009 (ip), vehicle: Klucel (hydroxypropylcellulose) (HPC)
[19] = dose: 200.0 mg/kg/injection, schedule: Q04DX003 (ip), vehicle: saline with Tween-80

Measured: T/C

c1csc(-c2[nH]nc3c2CCc2ccccc2-3)c1
inactive: dose: 3.75 mg/kg/injection, schedule: Q01DX005 (ip), vehicle: Klucel (hydroxypropylcellulose) (HPC) 122 % of control | dose: 7.5 mg/kg/injection, schedule: Q01DX005 (ip), vehicle: Klucel (hydroxypropylcellulose) (HPC) 114 % of control | dose: 15.0 mg/kg/injection, schedule: Q01DX005 (ip), vehicle: Klucel (hydroxypropylcellulose) (HPC) 114 % of control

CCCCCOC(=O)C1=CCN2CCCC12C (stereo unspecified)
inactive: dose: 25.0 mg/kg/injection, schedule: Q01DX001 (ip), vehicle: saline with Tween-80 97 % of control | dose: 50.0 mg/kg/injection, schedule: Q01DX001 (ip), vehicle: saline with Tween-80 105 % of control | [1] 97 % of control

Cc1c(NC(=S)Nc2ccccc2)c(=O)n(-c2ccccc2)n1C
inactive: [2] 93 % of control | [3] 93 % of control | [4] 89 % of control

CCC[CH2][Sn]1([CH2]CCC)[O]CC[S]1
inactive: dose: 3.12 mg/kg/injection, schedule: Q01DX009 (ip), vehicle: Klucel (hydroxypropylcellulose) (HPC) 116 % of control

COc1ccccc1C1OCC(C)(C)N1C (stereo unspecified)
inactive: dose: 18.75 mg/kg/injection, schedule: Q01DX001 (ip), vehicle: saline sonified 100 % of control | dose: 37.5 mg/kg/injection, schedule: Q01DX001 (ip), vehicle: saline sonified 95 % of control | dose: 75.0 mg/kg/injection, schedule: Q01DX001 (ip), vehicle: saline sonified 110 % of control | dose: 75.0 mg/kg/injection, schedule: Q04DX003 (ip), vehicle: saline with Tween-80 105 % of control | dose: 150.0 mg/kg/injection, schedule: Q04DX003 (ip), vehicle: saline with Tween-80 105 % of control | dose: 300.0 mg/kg/injection, schedule: Q04DX003 (ip), vehicle: saline with Tween-80 100 % of control

CC(C)[CH2][Ge]([Cl])([Cl])[Cl]
inactive: dose: 0.78 mg/kg/injection, schedule: Q01DX009 (ip), vehicle: saline 103 % of control | dose: 1.56 mg/kg/injection, schedule: Q01DX009 (ip), vehicle: saline 106 % of control | dose: 3.12 mg/kg/injection, schedule: Q01DX009 (ip), vehicle: saline 94 % of control | [5] 119 % of control

O=[N+]([O-])c1cc(NC(=S)SCc2ccccc2)ccc1Cl
inactive: [6] 108 % of control | [7] 92 % of control | [8] 115 % of control | [9] 108 % of control | [10] 92 % of control

N#CC(C(=O)CCCC(=O)Nc1cccc([N+](=O)[O-])c1)c1c(Cl)cccc1Cl (stereo unspecified)
inactive: [2] 111 % of control | [3] 111 % of control | [4] 105 % of control

O=C(O)c1cc(C(=O)O)cc([N+](=O)[O-])c1
inactive: [11] 100 % of control | [12] 100 % of control | [13] 100 % of control

c1ccc(COCC(COCc2ccccc2)(COCc2ccccc2)COCc2ccccc2)cc1
inactive: dose: 12.5 mg/kg/injection, schedule: Q01DX009 (ip), vehicle: saline + alcohol 105 % of control | dose: 25.0 mg/kg/injection, schedule: Q01DX009 (ip), vehicle: saline + alcohol 104 % of control | dose: 50.0 mg/kg/injection, schedule: Q01DX009 (ip), vehicle: saline + alcohol 97 % of control

CCCCCCN(C)C12CN3CN(CN(C3)C1)C2
inactive: [6] 102 % of control | [8] 102 % of control | [9] 102 % of control

CCOC(=O)C(C(C)=O)C(=O)C(C)(C)C (stereo unspecified)
inactive: [5] 112 % of control | [14] 102 % of control | dose: 25.0 mg/kg/injection, schedule: Q01DX009 (ip), vehicle: saline 102 % of control | [15] 91 % of control | [16] 104 % of control

NC(=S)N/N=C/c1cccc(CC(O)(C(F)(F)F)C(F)(F)F)n1
inactive: dose: 12.5 mg/kg/injection, schedule: Q04DX003 (ip), vehicle: saline with Tween-80 100 % of control | [11] 87 % of control

O=C(Nc1cc(Cl)ccc1Cl)/C(Cl)=C1/Sc2ccccc2NC1=O
inactive: [1] 108 % of control | dose: 200.0 mg/kg/injection, schedule: Q01DX001 (ip), vehicle: saline with Tween-80 90 % of control | dose: 400.0 mg/kg/injection, schedule: Q01DX001 (ip), vehicle: saline with Tween-80 90 % of control

CCCCCC(CN(C)C)C(O)CCc1ccc(Cl)c(Cl)c1 (stereo unspecified)
inactive: dose: 25.0 mg/kg/injection, schedule: Q01DX009 (ip), vehicle: Klucel (hydroxypropylcellulose) (HPC) 106 % of control | [17] 98 % of control | [18] 104 % of control

Cc1ccc(C(F)(F)F)cc1N(O)C(C)(C)C
inactive: [12] 95 % of control | [13] 101 % of control | [19] 118 % of control

Cc1ccc(S(=O)(=O)c2c(O)c3ccccc3c3nc4ccccc4nc23)cc1
inactive: [14] 90 % of control | dose: 12.5 mg/kg/injection, schedule: Q01DX009 (ip), vehicle: suspension in saline 88 % of control | dose: 25.0 mg/kg/injection, schedule: Q01DX009 (ip), vehicle: suspension in saline 90 % of control | [6] 89 % of control | [7] 88 % of control | [9] 91 % of control

c1ccc2sc(SSN3CCOCC3)nc2c1
inactive: [7] 97 % of control | dose: 100.0 mg/kg/injection, schedule: Q01DX009 (ip), vehicle: suspension in saline 106 % of control | [10] 95 % of control | dose: 400.0 mg/kg/injection, schedule: Q01DX009 (ip), vehicle: suspension in saline 90 % of control

FC(F)(F)c1nc2nccnc2[nH]1
inactive: dose: 50.0 mg/kg/injection, schedule: Q04DX003 (ip), vehicle: saline 100 % of control | dose: 100.0 mg/kg/injection, schedule: Q04DX003 (ip), vehicle: saline 100 % of control | dose: 200.0 mg/kg/injection, schedule: Q04DX003 (ip), vehicle: saline 100 % of control

COc1ccc(/C=C/Cc2cc3c(cc2OC(C)=O)OCO3)cc1
inactive: dose: 60.0 mg/kg/injection, schedule: Q01DX005 (ip), vehicle: saline with Tween-80 98 % of control | dose: 120.0 mg/kg/injection, schedule: Q01DX005 (ip), vehicle: saline with Tween-80 101 % of control | dose: 240.0 mg/kg/injection, schedule: Q01DX005 (ip), vehicle: saline with Tween-80 93 % of control

C=C1CC2C(C1=O)C(c1ccc(OC)cc1)C13OC1CCC23 (stereo unspecified)
inactive: dose: 100.0 mg/kg/injection, schedule: Q04DX003 (ip), vehicle: Klucel (hydroxypropylcellulose) (HPC) 105 % of control | dose: 200.0 mg/kg/injection, schedule: Q04DX003 (ip), vehicle: Klucel (hydroxypropylcellulose) (HPC) 96 % of control | dose: 400.0 mg/kg/injection, schedule: Q04DX003 (ip), vehicle: Klucel (hydroxypropylcellulose) (HPC) 86 % of control

COc1ccc(C)c2c(NCCCCCCCCNc3c4ccccc4nc4c(OC)ccc(C)c34)c3ccccc3nc12
inactive: dose: 2.5 mg/kg/injection, schedule: Q01DX009 (ip), vehicle: water 100 % of control | dose: 5.0 mg/kg/injection, schedule: Q01DX009 (ip), vehicle: water 113 % of control | dose: 10.0 mg/kg/injection, schedule: Q01DX009 (ip), vehicle: water 105 % of control

CC(C)N=C1NS(=O)(=O)c2ccccc21
inactive: [2] 114 % of control | [3] 97 % of control | [4] 108 % of control

COC(=O)/C=C/N(Cc1ccccc1)Cc1ccccc1
inactive: [15] 100 % of control | [13] 95 % of control | [16] 100 % of control | [19] 95 % of control | dose: 400.0 mg/kg/injection, schedule: Q01DX009 (ip), vehicle: saline with Tween-80 100 % of control | dose: 400.0 mg/kg/injection, schedule: Q04DX003 (ip), vehicle: saline with Tween-80 95 % of control

Cc1cc2nc(CC(=O)c3cccnc3)c(CC(=O)c3cccnc3)nc2cc1C
inactive: dose: 6.25 mg/kg/injection, schedule: Q01DX005 (ip), vehicle: saline with Tween-80 90 % of control | dose: 12.5 mg/kg/injection, schedule: Q01DX005 (ip), vehicle: saline with Tween-80 90 % of control | dose: 25.0 mg/kg/injection, schedule: Q01DX005 (ip), vehicle: saline with Tween-80 90 % of control | [3] 91 % of control

CCSc1nc2ccc(NC(=O)CCC(=O)O)cc2s1
inactive: [17] 103 % of control | [18] 102 % of control | dose: 200.0 mg/kg/injection, schedule: Q01DX009 (ip), vehicle: Klucel (hydroxypropylcellulose) (HPC) 101 % of control
